Values of other authors, collected in patent US9694080B2, “Polymer release system” (EGALET LTD., priority 2001, dated 2017).

Row | Structure (SMILES) | dose linearity range (literature) [mg] | absorption in the large intestine, share of the total absorption (timed-release capsules, Nolte et al) | beta effect relative to S(−) (β1 and β2) | α effect relative to S(−) (α-adrenoceptor)
1 | COc1ccccc1OCCNCC(O)COc1cccc2[nH]c3ccccc3c12 (stereo not shown) [Carvedilol] | 6.25 to 50 | approximately 10% | – | –
2 | COc1ccccc1OCCNC[C@@H](O)COc1cccc2[nH]c3ccccc3c12 [R(+)] | – | – | 1/100 | the same α effect
